# Tested on: vAtEGp64S966 baculovirus (spike protein) entry into Vero E6 cells
# Type: cell-based
row,Structure (SMILES),blocking the entry of baculovirus into Vero E6 cells
1,"CN1CCN(CCCN2c3ccccc3Sc3ccc(Cl)cc32)CC1 [compound 0643, Prochlorperazine]",very effective in blocking the entry
2,"CCC(=O)c1ccc2c(c1)N(CC(C)N(C)C)c1ccccc1S2 (stereo not drawn) [compound 0649, Propiomazine]",very effective in blocking the entry
3,"CSc1ccc2c(c1)N(CCC1CCCCN1C)c1ccccc1S2 (stereo not drawn) [compound 2025, Thioridazine]",very effective in blocking the entry

# From patent publication US7527967B2, “Recombinant baculovirus and virus-like particle” (priority 2003, dated 2009)
